# From paper PMC8333425, “Discovery of a dual Ras and ARF6 inhibitor from a GPCR endocytosis screen” (Nature Communications, 2021)
# Several values for one entry are separate records, joined by “and”; a condition that tells them apart may be missing. Identical values can stand only once.
# Key:
# Gαq = biological target: T1, Gαq (Homo sapiens, UniProt P50148); experiment: Gαq BRET sensor, AT1R-mediated; format: cell-based
# T1 construct: expressed in transfected cells; host or cells: HEK293SL
# Description: HEK293SL cells were seeded at a density of 7.5 × 10^5 cells per 100-mm dish and 24 h later, transiently transfected as such. For receptor internalization experiments, cells were transfected with 0.12 μg AT1R-RlucII, B2R-RlucII, or β2AR-RlucII and 0.48 μg of either rGFP-CAAX (to assess removal from the PM) or rGFP-FYVE (to assess accumulation in the endosomes). For β-arrestin recruitment assays, cells were transfected with 0.48 μg of receptor-YFP along with 0.12 μg of β-arrestin-RlucII. For β-arrestin/AP-2 binding experiments, cells were transfected with 1 μg Flag-AT1R, 1 μg β2-Adaptin-YFP, and 0.12 μg β-arrestin2-RlucII. For G protein activation, cells were transfected with 3 μg of sp-Flag-AT1R along with either 4.5 μg of the Gαq-polycistronic BRET sensor or 0.24 μg of the Gαi3-RlucII and 0.6 μg of GFP10-Gγ2 and Gβ1 sensors or 0.12 μg PKN-RBD-RlucII and 0.48 μg of rGFP-CAAX. For PKC activation, cells were transfected with 3 μg of sp-Flag-AT1R and 0.18 μg of the PKC sensor. For GTPase activation experiments, cells were transfected with 1 μg Flag-AT1R, 0.48 μg of rGFP-CAAX, and either 0.12 μg of GGA3-PBD-RlucII, PAK-CRIB-RlucII or Raf-RBD-RlucII. For biosensor validation experiments, cells were additionally transfected with 500 ng Flag-K-Ras-WT, Flag-K-Ras-G12V, Flag-K-Ras-SOS-CAAX, HA-ARF6-WT, HA-ARF6-T27N, Myc-Rac1-WT, Myc-Rac1-Q61L or Myc-Rac1-T17N. For PI3K/Akt activation experiments, cells were transfected with 0.48 μg of rGFP-CAAX and 0.12 μg of Akt (PH)-RlucII. After 18 h of transfection, the media was replaced and cells were divided for subsequent experiments. Cells were detached and seeded onto poly-L-ornithine-coated 96-well flat white bottom plates (BrandTech Scientific) at a density of 2.5 × 10^4 cells per well in media. […] For kinetics of β-arrestin recruitment or β-arrestin binding to receptor and AP-2 experiments, cells were serum starved for 30 min, pretreated with 21 (50 µM) or Barbadin (100 µM) for 30 min, stimulated with 100 nM AngII or 1 µM BK and BRET signals were monitored at indicated times using a Victor X Light plate reader (PerkinElmer). […] The BRET ratio was determined by calculating the ratio of the light emitted by YFP over the light emitted by the RlucII. […] For the kinetics of GTPase and PI3K/Akt activation, cells were serum starved, pretreated with 21 (50 µM) or Wortmannin (200 nM) for 30 min, stimulated with ligand (100 nM AngII or 100 ng/ml EGF) and BRET signals were monitored at indicated times. […] BRET signals were monitored using a Synergy2 (BioTek) microplate reader and coelenterazine 400a (final concentrations of 5 µM) added 3–5 min prior to BRET measurements. […] The BRET ratio was determined by calculating the ratio of the light emitted by rGFP/GFP10 over the light emitted by the RlucII.
# MEK1 = experiment: Western blot of ERK1/2 phosphorylation induced by MEK1 (MEK1-WT / MEK1-DD); format: cell-based, human
# Description: HEK293SL cells (10^5 cells per well) were seeded in a poly-L-lysine-coated six-well plate and transiently transfected with 3 μg Flag-AT1R, HA-B2R or HA-β2AR and/or 500 ng Flag-MEK1-WT, Flag-MEK1-DD, Flag-BRAF-WT, Flag-BRAF-V600E, Flag-K-Ras-WT, Flag-K-Ras-G12V, HA-ARF6-WT, or HA-ARF6-T27N. Gαq/11 KO and βarr1/2 KO cells were seeded onto 100 mm dishes at a density of 10^6 cells per dish. Next day, cells were transfected with 3 μg AT1R alone or along with 500 ng of β-arrestin2 using PEI. After 18 h of transfection, cells were detached and re-seeded onto poly-L-lysine coated 12-well plates (~1.5–2 × 10^5cells/well) for subsequent experiments. Forty-eight hours post transfection, in a 37 °C water bath, cells were serum-starved for 30 min, pretreated with DMSO (0.1%) or compound 21/Rasarfin (50 µM or at indicated concentrations) for 30 min, then stimulated or not with the indicated ligand [AngII (1 µM), BK (1 µM), Iso (10 µM) or EGF (100 ng/ml)] at indicated times. Cells were put on ice, washed with PBS and solubilized in 2x laemmli buffer (250 mM Tris–HCl pH 6.8, 2% SDS (w/v), 10% glycerol (v/v), 0.01% bromophenol blue (w/v) and 5% β-mercaptoethanol (v/v)) by heating at 65 °C for 15 min. Lysates were resolved on 10 or 14% SDS-PAGE, transferred to nitrocellulose membranes and immunoblotted for p-ERK1/2, ERK1/2, p-Akt, Akt, HA, Myc, β-actin or FLAG. ImageLab 5.2 software was used to quantify the digital blots as fold of the phosphorylated protein over total protein, which were then normalized as indicated in the figure legends. Uncropped immunoblots are provided in the Source Data file.
# T1 sequence (P50148 whole entry): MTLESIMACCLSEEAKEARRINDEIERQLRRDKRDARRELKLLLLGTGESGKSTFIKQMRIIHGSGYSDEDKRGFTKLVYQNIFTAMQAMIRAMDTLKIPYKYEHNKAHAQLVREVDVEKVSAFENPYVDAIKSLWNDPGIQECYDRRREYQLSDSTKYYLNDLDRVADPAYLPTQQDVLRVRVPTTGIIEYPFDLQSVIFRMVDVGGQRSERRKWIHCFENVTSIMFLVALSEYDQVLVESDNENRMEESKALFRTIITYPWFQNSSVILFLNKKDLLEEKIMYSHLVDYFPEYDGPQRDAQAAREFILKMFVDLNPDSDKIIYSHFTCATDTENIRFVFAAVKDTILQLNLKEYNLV
# T1 sequence (P62873 whole entry partner): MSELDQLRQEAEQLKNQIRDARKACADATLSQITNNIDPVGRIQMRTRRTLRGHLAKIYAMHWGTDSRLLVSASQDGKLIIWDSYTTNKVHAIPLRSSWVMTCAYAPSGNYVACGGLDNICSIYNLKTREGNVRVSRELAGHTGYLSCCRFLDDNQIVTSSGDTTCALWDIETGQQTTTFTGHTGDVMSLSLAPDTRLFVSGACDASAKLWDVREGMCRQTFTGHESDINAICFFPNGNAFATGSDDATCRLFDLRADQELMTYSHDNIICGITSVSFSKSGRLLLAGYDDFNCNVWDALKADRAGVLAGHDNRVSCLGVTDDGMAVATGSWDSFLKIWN
# T1 sequence (P63211 2-71 partner limits assumed): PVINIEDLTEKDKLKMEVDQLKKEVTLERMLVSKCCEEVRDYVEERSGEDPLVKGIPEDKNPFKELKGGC
compound,measurement,setting,value
CC(C)C(=O)N1CCN(c2ccc(NC(=O)c3cc4ccccc4o3)cc2Cl)CC1 [Compound 21],"Mean Diff. DMSO vs. compound, Gq (Dunnett's multiple comparisons test)",Gαq,0.009667
same,Gαq engagement by AT1R (BRET sensor),Gαq; 50 μM,lack of inhibitory effects
same,"Gq BRET sensor signal (S_Fig.4b), single experiments",Gαq; listed as Comp 21,0.1945 and 0.171 and 0.2095
same,ERK1/2 activation induced by overexpression of MEK1-DD,MEK1; 50 μM,nor did it block ERK1/2 activation
same,Predicted (LS) mean diff. DMSO vs. compound (Bonferroni's multiple comparisons test),MEK1; Flag-MEK1 DD,0.4193
same,ERK1/2 phosphorylation relative to mock (S_Fig.4c),"MEK1; Flag-MEK1 DD, listed as Comp 21",4.057 and 4.133 and 4.072 and 3.9273
same,Predicted (LS) mean diff. DMSO vs. compound (Bonferroni's multiple comparisons test),MEK1; Flag-MEK1 WT,0.04596
same,ERK1/2 phosphorylation relative to mock (S_Fig.4c),"MEK1; Flag-MEK1 WT, listed as Comp 21",1.754 and 1.134 and 1.2368
same,ERK1/2 phosphorylation relative to mock (S_Fig.4c),MEK1; mock,1
same,Predicted (LS) mean diff. DMSO vs. compound (Bonferroni's multiple comparisons test),MEK1; mock,0
